# Experimental data taken from US20060069132A1, “Azolecarboxamide herbicides” (priority 2004, published 2006).
# Columns and labels:
# [1] = test system: large crabgrass; assay: Test E pre-/postemergence herbicide test; type: in vivo, Digitaria sanguinalis
# Description: (§1) Seeds of plant species selected from bipinnate beggarticks (Bidens bipinnata L.), hairy beggarticks (Bidens radiata Thuill.), bermudagrass (Cynodon dactylon (L.) Pers.), Surinam grass (Urochloa decumbens (Staph) R. D. Webster, previously named Brachiaria decumbens Stapf), large crabgrass (Digitaria sanguinalis (L.) Scop.), green foxtail (Setaria viridis (L.) P. Beauv.), goosegrass (Eleusine indica (L.) Gaertn.), johnsongrass (Sorghum halepense (L.) Pers.), kochia (Kochia scoparia (L.) Schrad.), pitted morningglory (Ipomoea lacunosa L.), purple nutsedge (Cyperus rotundus L.), common ragweed (Ambrosia elatior L.), mustard (Brassica nigra (L.) W. D. J. Koch), guineagrass (Panicum maximum Jacq.), dallisgrass (Paspalum dilatatum Poir.), barnyardgrass (Echinochloa crus-galli (L). P. Beauv.), southern sandbur (Cenchrus echinatus L.), common sowthistle (Sonchus oleraceous L.), prickly sida (Sida spinosa L.), Italian ryegrass (Lolium multiflorum Lam.), common purslane (Portulaca oleracea L.), broadleaf signalgrass (Brachiaria platyphylla (Griseb.) Nash), common groundsel (Senecio vulgaris L.), common chickweed (Stellaria media (L.) Vill/Cyr.), tropical spiderwort (Commelina benghalensis L.), annual bluegrass (Poa annua L.), downy bromegrass (Bromus tectorum L.), itchgrass (Rottboellia cochinchinensis (L.) L.f.), quackgrass (Elytrigia repens (L.) Nevski), Canada horseweed (Erigeron Canadensis L.), field bindweed (Convolvulus arvensis L.), spotted spurge (Euphorbia maculata L.), common mallow (Malva sylvestris (=s silvestris) L.), and Russian thistle (Salsola kali L. ssp. Ruthenica (Iljin) Soo) were planted and treated preemergence with test chemicals formulated in a non-phytotoxic solvent mixture which included a surfactant.
# (§2) At the same time, plants selected from these weed species were treated with postemergence applications of some of the test chemicals formulated in the same manner. Plants ranged in height from 2 to 18 cm (1- to 4-leaf stage) for postemergence treatments. Treated plants and controls were maintained in a greenhouse for 12 to 14 days, after which time all species were compared to controls and visually evaluated. Plant response ratings, summarized in Table E, are based on a scale of 0 to 100 where 0 is no effect and 100 is complete control. A dash (-) response means no test result.
# [2] = test system: green foxtail; assay: Test C postemergence herbicide test; type: in vivo, Setaria viridis
# How it was run: (§3)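 Plants were grown to the 1- to 4-leaf stage (2–18 cm) and then treated postemergence, or grown to the 2-leaf stage for the flooded paddy test. They were held in a greenhouse for 12 to 14 days and then scored by eye against controls, where 0 is no effect and 100 is complete control.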
# [3] = test system: prickly sida; assay: Test E pre-/postemergence herbicide test; type: in vivo, Sida spinosa; details: Preemergence
# Description: as §1, §2
# [4] = test system: barnyardgrass; assay: Test E pre-/postemergence herbicide test; type: in vivo, Echinochloa crus-galli
# Description: as §1, §2
# [5] = test system: johnsongrass; assay: Test E pre-/postemergence herbicide test; type: in vivo, Sorghum halepense
# Description: as §1, §2
# [6] = test system: windgrass; assay: Test C postemergence herbicide test; type: in vivo, Apera spica-venti
# How it was run: as §3
# [7] = test system: annual bluegrass; assay: Test E pre-/postemergence herbicide test; type: in vivo, Poa annua
# Description: as §1, §2
# [8] = test system: common ragweed; assay: Test E pre-/postemergence herbicide test; type: in vivo, Ambrosia elatior
# Description: as §1, §2
# [9] = test system: tropical spiderwort; assay: Test E pre-/postemergence herbicide test; type: in vivo, Commelina benghalensis
# Description: as §1, §2
# [10] = test system: mustard; assay: Test E pre-/postemergence herbicide test; type: in vivo, Brassica nigra
# Description: as §1, §2
# [11] = test system: pitted morningglory; assay: Test E pre-/postemergence herbicide test; type: in vivo, Ipomoea lacunosa
# Description: as §1, §2
# [12] = test system: southern sandbur; assay: Test E pre-/postemergence herbicide test; type: in vivo, Cenchrus echinatus
# Description: as §1, §2
# [13] = test system: canarygrass; assay: Test C postemergence herbicide test; type: in vivo, Phalaris minor
# How it was run: as §3
# [14] = test system: common chickweed; assay: Test E pre-/postemergence herbicide test; type: in vivo, Stellaria media
# Description: as §1, §2
# [15] = Preemergence, 62 g ai/ha, scale 0 to 100
# [16] = Preemergence, 125 g ai/ha, scale 0 to 100
# [17] = Preemergence, 250 g ai/ha, scale 0 (no effect) to 100 (complete control)
# [18] = Preemergence, 500 g ai/ha, scale 0 (no effect) to 100 (complete control)
# [19] = Postemergence, 250 g ai/ha, scale 0 to 100, 0 no effect, 100 complete control
# [20] = postemergence, 125 g ai/ha, scale 0 to 100
# [21] = postemergence, 62 g ai/ha, scale 0 to 100
# [22] = Postemergence, 500 g ai/ha, scale 0 to 100
# [23] = Postemergence, 250 g ai/ha, scale 0 to 100
compound,measurement,setting,value
"CCN1N=C(C(C)(C)C)CC1C(=O)Nc1cc(C(=O)N(C)C)ccc1F (centres unmarked) [Compound 268, N-[5-[(dimethylamino)carbonyl]-2-fluorophenyl]-3-(1,1-dimethylethyl)-1-ethyl-4,5-dihydro-1H-pyrazole-5-carboxamide]","Plant response rating, Crabgrass, Large",[1]; [15],70
same,"Plant response rating, Crabgrass, Large",[1]; [16],80
same,"Plant response rating, Crabgrass, Large",[1]; [17],95
same,"Plant response rating, Crabgrass, Large",[1]; [18],95
same,"Plant response rating, Foxtail, Green",[2]; [19],50
same,"Plant response rating, Foxtail, Green",[2]; [20],45
same,"Plant response rating, Foxtail, Green",[2]; [21],40
same,"Plant response rating, Prickly Sida","[3]; 62 g ai/ha, scale 0 to 100",60
same,"Plant response rating, Prickly Sida","[3]; 125 g ai/ha, scale 0 to 100",80
same,"Plant response rating, Prickly Sida","[3]; 250 g ai/ha, scale 0 (no effect) to 100 (complete control)",100
same,"Plant response rating, Prickly Sida","[3]; 500 g ai/ha, scale 0 (no effect) to 100 (complete control)",100
same,"Plant response rating, Barnyardgrass",[4]; [15],60
same,"Plant response rating, Barnyardgrass",[4]; [16],85
same,"Plant response rating, Barnyardgrass",[4]; [17],100
same,"Plant response rating, Barnyardgrass",[4]; [18],100
same,"Plant response rating, Johnsongrass",[5]; [15],30
same,"Plant response rating, Johnsongrass",[5]; [16],50
same,"Plant response rating, Johnsongrass",[5]; [17],50
same,"Plant response rating, Johnsongrass",[5]; [18],80
same,"Plant response rating, Windgrass",[6]; [19],100
same,"Plant response rating, Windgrass",[6]; [20],60
same,"Plant response rating, Windgrass",[6]; [21],30
same,"Plant response rating, Bluegrass",[7]; [15],80
same,"Plant response rating, Bluegrass",[7]; [16],95
same,"Plant response rating, Bluegrass",[7]; [17],95
same,"Plant response rating, Bluegrass",[7]; [18],95
same,"Plant response rating, Ragweed",[8]; [15],50
same,"Plant response rating, Ragweed",[8]; [16],60
same,"Plant response rating, Ragweed",[8]; [17],100
same,"Plant response rating, Ragweed",[8]; [18],100
same,"Plant response rating, Spiderwort",[9]; [16],70
same,"Plant response rating, Spiderwort",[9]; [17],85
same,"Plant response rating, Spiderwort",[9]; [18],90
same,"Plant response rating, Black Mustard",[10]; [15],90
same,"Plant response rating, Black Mustard",[10]; [16],100
same,"Plant response rating, Black Mustard",[10]; [17],100
same,"Plant response rating, Black Mustard",[10]; [18],100
same,"Plant response rating, Morningglory",[11]; [15],10
same,"Plant response rating, Morningglory",[11]; [16],10
same,"Plant response rating, Morningglory",[11]; [17],40
same,"Plant response rating, Morningglory",[11]; [18],60
same,"Plant response rating, Sandbur",[12]; [15],10
same,"Plant response rating, Sandbur",[12]; [16],70
same,"Plant response rating, Sandbur",[12]; [17],100
same,"Plant response rating, Sandbur",[12]; [18],100
same,"Plant response rating, Canarygrass",[13]; [19],50
same,"Plant response rating, Canarygrass",[13]; [20],30
same,"Plant response rating, Canarygrass","[13]; postemergence, 31 g ai/ha, scale 0 to 100",10
same,"Plant response rating, Canarygrass",[13]; [21],10
"CCn1nc(C(C)(C)C)cc1C(=O)Nc1cc(C(=O)N(C)C)ccn1 [Compound 156, 2-[[[3-(1,1-dimethylethyl)-1-ethyl-1H-pyrazol-5-yl]carbonyl]amino]-N,N-dimethyl-4-pyridinecarboxamide]","Plant response rating, Crabgrass, Large",[1]; [22],98
same,"Plant response rating, Crabgrass, Large",[1]; [23],95
same,"Plant response rating, Crabgrass, Large",[1]; [16],90
same,"Plant response rating, Crabgrass, Large",[1]; [17],95
same,"Plant response rating, Crabgrass, Large",[1]; [18],95
same,"Plant response rating, Crabgrass, Large",[1]; [20],80
same,"Plant response rating, Crabgrass, Large",[1]; [21],35
same,"Plant response rating, Chickweed",[14]; [22],100
same,"Plant response rating, Chickweed",[14]; [23],100
same,"Plant response rating, Chickweed",[14]; [15],80
same,"Plant response rating, Chickweed",[14]; [16],100
same,"Plant response rating, Chickweed",[14]; [17],100
same,"Plant response rating, Chickweed",[14]; [18],100
same,"Plant response rating, Chickweed",[14]; [20],100
same,"Plant response rating, Chickweed",[14]; [21],100
same,"Plant response rating, Barnyardgrass",[4]; [22],98
same,"Plant response rating, Barnyardgrass",[4]; [23],98
same,"Plant response rating, Barnyardgrass",[4]; [15],100
same,"Plant response rating, Barnyardgrass",[4]; [16],100
same,"Plant response rating, Barnyardgrass",[4]; [17],100
same,"Plant response rating, Barnyardgrass",[4]; [18],100
same,"Plant response rating, Barnyardgrass",[4]; [20],95
same,"Plant response rating, Barnyardgrass",[4]; [21],90
same,"Plant response rating, Johnsongrass",[5]; [22],100
same,"Plant response rating, Johnsongrass",[5]; [23],100
same,"Plant response rating, Johnsongrass",[5]; [15],95
same,"Plant response rating, Johnsongrass",[5]; [16],100
same,"Plant response rating, Johnsongrass",[5]; [17],100
same,"Plant response rating, Johnsongrass",[5]; [18],100
same,"Plant response rating, Johnsongrass",[5]; [20],95
same,"Plant response rating, Johnsongrass",[5]; [21],85
same,"Plant response rating, Bluegrass",[7]; [22],98
same,"Plant response rating, Bluegrass",[7]; [23],98
same,"Plant response rating, Bluegrass",[7]; [15],95
same,"Plant response rating, Bluegrass",[7]; [16],95
same,"Plant response rating, Bluegrass",[7]; [17],100
same,"Plant response rating, Bluegrass",[7]; [18],100
same,"Plant response rating, Bluegrass",[7]; [20],95
same,"Plant response rating, Bluegrass",[7]; [21],90
same,"Plant response rating, Ragweed",[8]; [22],98
same,"Plant response rating, Ragweed",[8]; [23],90
same,"Plant response rating, Ragweed",[8]; [15],50
same,"Plant response rating, Ragweed",[8]; [16],90
same,"Plant response rating, Ragweed",[8]; [17],95
same,"Plant response rating, Ragweed",[8]; [18],100
same,"Plant response rating, Ragweed",[8]; [20],90
same,"Plant response rating, Ragweed",[8]; [21],80
same,"Plant response rating, Spiderwort",[9]; [22],65
same,"Plant response rating, Spiderwort",[9]; [23],50
same,"Plant response rating, Spiderwort",[9]; [15],30
same,"Plant response rating, Spiderwort",[9]; [16],50
same,"Plant response rating, Spiderwort",[9]; [17],50
same,"Plant response rating, Spiderwort",[9]; [18],80
same,"Plant response rating, Spiderwort",[9]; [20],30
same,"Plant response rating, Spiderwort",[9]; [21],20
same,"Plant response rating, Black Mustard",[10]; [22],100
same,"Plant response rating, Black Mustard",[10]; [23],100
same,"Plant response rating, Black Mustard",[10]; [15],100
same,"Plant response rating, Black Mustard",[10]; [16],100
same,"Plant response rating, Black Mustard",[10]; [17],100
same,"Plant response rating, Black Mustard",[10]; [18],100
same,"Plant response rating, Black Mustard",[10]; [20],100
same,"Plant response rating, Black Mustard",[10]; [21],98
same,"Plant response rating, Morningglory",[11]; [22],90
same,"Plant response rating, Morningglory",[11]; [23],80
same,"Plant response rating, Morningglory",[11]; [15],30
same,"Plant response rating, Morningglory",[11]; [16],100
same,"Plant response rating, Morningglory",[11]; [17],100
same,"Plant response rating, Morningglory",[11]; [18],100
same,"Plant response rating, Morningglory",[11]; [20],65
same,"Plant response rating, Morningglory",[11]; [21],10
same,"Plant response rating, Sandbur",[12]; [22],98
same,"Plant response rating, Sandbur",[12]; [23],80
same,"Plant response rating, Sandbur",[12]; [15],50
same,"Plant response rating, Sandbur",[12]; [16],60
same,"Plant response rating, Sandbur",[12]; [17],75
same,"Plant response rating, Sandbur",[12]; [18],80
same,"Plant response rating, Sandbur",[12]; [20],75
same,"Plant response rating, Sandbur",[12]; [21],0
